Experiments:
Assay type in all cases: cell-based, human
TK-10 [1] = experiment: NCI-60 one-dose screen (renal cancer); conditions: 10 µM single dose, 48 h
Method: (§1) The obtained quinolinequinones were submitted to NCI, Bethesda, USA, and, as per standard protocol of NCI, all compounds were evaluated for their antiproliferative activity at single-dose assay (10 µM concentration in DMSO) on a panel of 60 cancer cell lines derived from leukemia, non-small-cell lung, colon, CNS, melanoma, ovarian, renal, prostate, and breast, as per protocol. Tested compounds were added to the microtiter culture plates followed by incubation for 48 h at 37 °C. Sulforhodamine B (SRB), a protein-binding dye, is used for endpoint determination. The percent of the growth of the treated cells was determined in comparison to the untreated control cells and the results of each tested compound were reported. Data from one-dose experiments pertain to the percentage growth at 10 μM [16, 17, 18].

SN12C = experiment: NCI-60 one-dose screen (renal cancer); conditions: 10 µM single dose, 48 h
Method: as §1

A498 = experiment: NCI-60 one-dose screen (renal cancer); conditions: 10 µM single dose, 48 h
Method: as §1

786-0 = experiment: NCI-60 one-dose screen (renal cancer); conditions: 10 µM single dose, 48 h
Method: as §1

UO-31 [2] = experiment: NCI-60 one-dose screen (renal cancer); conditions: 10 µM single dose, 48 h
Method: as §1

ACHN = experiment: NCI-60 one-dose screen (renal cancer); conditions: 10 µM single dose, 48 h
Method: as §1

HCT-116 = experiment: NCI-60 five-dose assay (colon cancer); conditions: 48 h, SRB
IGROV1 = experiment: NCI-60 five-dose assay (ovarian cancer); conditions: SRB
SF-539 = experiment: NCI-60 five-dose assay (CNS cancer); conditions: 48 h, SRB
K-562 [3] = experiment: NCI-60 five-dose assay (leukemia); conditions: Homo sapiens, K562, 48 h, SRB
M14 = experiment: NCI-60 five-dose assay (melanoma); conditions: 48 h, SRB
MDA-MB-435 = experiment: NCI-60 five-dose assay (melanoma); conditions: 48 h, SRB
SW-620 [4] = experiment: NCI-60 five-dose assay (colon cancer); conditions: 48 h, SRB
HT29 = experiment: NCI-60 five-dose assay (colon cancer); conditions: SRB
UO-31 [5] = experiment: NCI-60 five-dose assay (renal cancer); conditions: 48 h, SRB
HCT-15 = experiment: NCI-60 five-dose assay (colon cancer); conditions: 48 h, SRB
COLO 205 [6] = experiment: NCI-60 five-dose assay (colon cancer); conditions: 48 h, SRB
U251 = experiment: NCI-60 five-dose assay (CNS cancer); conditions: SRB
DU-145 = experiment: NCI-60 five-dose assay (prostate cancer); conditions: 48 h, SRB
KM12 [7] = experiment: NCI-60 one-dose screen (colon cancer); conditions: 10 µM single dose, 48 h
COLO 205 [8] = experiment: NCI-60 one-dose screen (colon cancer); conditions: 10 µM single dose, 48 h
SW-620 [9] = experiment: NCI-60 one-dose screen (colon cancer); conditions: 10 µM single dose, 48 h
HL-60(TB) [10] = experiment: NCI-60 five-dose assay (leukemia); conditions: 48 h, SRB
SF-295 = experiment: NCI-60 five-dose assay (CNS cancer); conditions: 48 h, SRB
TK-10 [11] = experiment: NCI-60 five-dose assay (renal cancer); conditions: 48 h, SRB
MOLT-4 = experiment: NCI-60 one-dose screen (leukemia); conditions: 10 µM single dose, 48 h
Method: as §1

CCRF-CEM = experiment: NCI-60 one-dose screen (leukemia); conditions: 10 µM single dose, 48 h
Method: as §1

K-562 [12] = experiment: NCI-60 one-dose screen (leukemia)
Method: as §1

SR = experiment: NCI-60 one-dose screen (leukemia); conditions: 10 µM single dose, 48 h
Method: as §1

HL-60(TB) [13] = experiment: NCI-60 one-dose screen (leukemia); conditions: 10 µM single dose, 48 h
Method: as §1

RPMI-8226 = experiment: NCI-60 one-dose screen (leukemia); conditions: 10 µM single dose, 48 h
Method: as §1

KM12 [14] = experiment: NCI-60 five-dose assay (colon cancer); conditions: 48 h, SRB
UACC-257 = experiment: NCI-60 five-dose assay (melanoma); conditions: 48 h, SRB
OVCAR-4 = experiment: NCI-60 five-dose assay (ovarian cancer); conditions: 48 h, SRB
SK-MEL-28 = experiment: NCI-60 five-dose assay (melanoma); conditions: 48 h, SRB
A549/ATCC = experiment: NCI-60 five-dose assay (non-small cell lung cancer); conditions: 48 h, SRB
OVCAR-8 = experiment: NCI-60 five-dose assay (ovarian cancer); conditions: 48 h, SRB
[15] = Homo sapiens, read-out: LC50 (the source's name)

CCOc1ccccc1NC1=C(Cl)C(=O)c2nc(C)ccc2C1=O [AQQ2]
GP (growth percentage) (TK-10 [1]): 124.08%
GP (growth percentage) (SN12C): −50.97%
GP (growth percentage) (A498): 78.84%
GP (growth percentage) (786-0): −88.18%
GP (growth percentage) (UO-31 [2]): −92.96%
GP (growth percentage) (ACHN): −99.15%
TGI (HCT-116): 2310 nM
GI50 (HCT-116; Homo sapiens): 1050 nM
LC50 (HCT-116; Homo sapiens): 5050 nM
TGI (IGROV1; 48 h): 2820 nM
GI50 (IGROV1; Homo sapiens, IGROV-1, 48 h): 1370 nM
LC50 (IGROV1; Homo sapiens, IGROV-1, 48 h): 5840 nM
TGI (SF-539): 3090 nM
GI50 (SF-539; Homo sapiens): 1670 nM
LC50 (SF-539; Homo sapiens): 5710 nM
GI50 (K-562 [3]): 341 nM
LC50 (K-562 [3]): > 100000 nM
TGI (M14): 2830 nM
GI50 (M14; Homo sapiens): 1460 nM
LC50 (M14; Homo sapiens): 5500 nM
TGI (MDA-MB-435): 671 nM
GI50 (MDA-MB-435; Homo sapiens): 266 nM
CC50 (MDA-MB-435; [15]): 2450 nM
TGI (SW-620 [4]): 3210 nM
GI50 (SW-620 [4]; Homo sapiens): 1600 nM
LC50 (SW-620 [4]; Homo sapiens): 6410 nM
TGI (HT29; 48 h): 15200 nM
GI50 (HT29; Homo sapiens, HT-29, 48 h): 3400 nM
LC50 (concentration killing 50% of cells) (HT29; Homo sapiens, HT-29, 48 h): 99500 nM
TGI (UO-31 [5]): 2710 nM
GI50 (UO-31 [5]; Homo sapiens): 1400 nM
LC50 (lethal concentration 50%) (UO-31 [5]; Homo sapiens): 5230 nM
TGI (HCT-15): 2550 nM
GI50 (HCT-15; Homo sapiens): 1130 nM
CC50 (HCT-15; [15]): 5760 nM
TGI (COLO 205 [6]): 3660 nM
GI50 (COLO 205 [6]; Homo sapiens): 1730 nM
CC50 (COLO 205 [6]; [15]): 7740 nM
TGI (U251; 48 h): 3270 nM
GI50 (U251; Homo sapiens, U-251, 48 h): 1700 nM
LC50 (concentration killing 50% of cells) (U251; Homo sapiens, U-251, 48 h): 6280 nM
TGI (DU-145): 2990 nM
GI50 (DU-145; Homo sapiens): 1630 nM
CC50 (DU-145; [15]): 5490 nM
GP (growth percentage) (KM12 [7]): 60.77%
GP (growth percentage) (COLO 205 [8]): 99.24%
GP (growth percentage) (SW-620 [9]): −66.65%
TGI (HL-60(TB) [10]): 2920 nM
GI50 (HL-60(TB) [10]; Homo sapiens): 1030 nM
CC50 (HL-60(TB) [10]; [15]): 8290 nM
TGI (SF-295): 4200 nM
GI50 (SF-295; Homo sapiens): 2030 nM
LC50 (50% lethal concentration) (SF-295; Homo sapiens): 8700 nM
TGI (TK-10 [11]): 3720 nM
GI50 (TK-10 [11]; Homo sapiens): 2250 nM
LC50 (concentration killing 50% of starting cells) (TK-10 [11]; Homo sapiens): 6180 nM
GP (growth percentage) (MOLT-4): −24.89%
GP (growth percentage) (CCRF-CEM): −6.33%
GP (growth percentage) (K-562 [12]; 10 µM single dose, 48 h): 1.26%
inhibition at 10 µM (K-562 [12]; Homo sapiens, K562, 10 µM single dose): 98.7%
GP (growth percentage) (SR): −12.75%
GP (growth percentage) (HL-60(TB) [13]): −36.75%
GP (growth percentage) (RPMI-8226): −35.12%
TGI (KM12 [14]): 2890 nM
GI50 (KM12 [14]; Homo sapiens): 1410 nM
CC50 (KM12 [14]; [15]): 5920 nM
TGI (UACC-257): 2610 nM
GI50 (UACC-257; Homo sapiens): 1280 nM
LC50 (NCI-60 lethal concentration, 50% cell kill) (UACC-257; Homo sapiens): 5340 nM
TGI (OVCAR-4): 2220 nM
GI50 (OVCAR-4; Homo sapiens): 1000 nM
LC50 (concentration killing 50% of cells) (OVCAR-4; Homo sapiens): 4910 nM
TGI (SK-MEL-28): 3140 nM
GI50 (SK-MEL-28; Homo sapiens): 1710 nM
LC50 (SK-MEL-28; Homo sapiens): 5790 nM
TGI (A549/ATCC): 4640 nM
GI50 (A549/ATCC; Homo sapiens): 2060 nM
CC50 (A549/ATCC; [15]): 12900 nM
TGI (OVCAR-8): 2920 nM
GI50 (OVCAR-8; Homo sapiens): 1490 nM
CC50 (OVCAR-8; [15]): 5700 nM

From article PMC11200585, “Prospects for Prostate Cancer Chemotherapy: Cytotoxic Evaluation and Mechanistic Insights of Quinolinequinones with ADME/PK Profile” (Biomedicines, 2024)
